# Ends that are not written are not given here. Peptide text beside a SMILES is read from it.
# Target: murine intestinal cells (Mus musculus, UniProt O88319)
# Assay: Ca2+ flux / calcium response assay (cell signaling activity) in murine intestinal cells
# Assay type: cell-based
# Conditions: FIG. 2, truncation
# Chain of murine intestinal cells (O88319 whole entry): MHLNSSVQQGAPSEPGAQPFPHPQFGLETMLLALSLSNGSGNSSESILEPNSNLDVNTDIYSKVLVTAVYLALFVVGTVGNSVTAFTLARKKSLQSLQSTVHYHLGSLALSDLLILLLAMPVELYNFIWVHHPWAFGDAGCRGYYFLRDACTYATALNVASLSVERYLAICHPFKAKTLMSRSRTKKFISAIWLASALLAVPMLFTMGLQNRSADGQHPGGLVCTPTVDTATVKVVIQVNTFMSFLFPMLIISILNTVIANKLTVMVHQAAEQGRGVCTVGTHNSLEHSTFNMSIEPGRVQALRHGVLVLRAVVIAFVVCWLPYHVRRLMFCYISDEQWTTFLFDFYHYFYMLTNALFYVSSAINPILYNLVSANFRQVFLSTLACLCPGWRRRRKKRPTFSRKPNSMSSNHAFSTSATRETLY
row,Compound,activity compared with the full sequence ASDKPYIL in mIC
1,CC[C@H](C)[C@H](NC(=O)[C@H](Cc1ccc(O)cc1)NC(=O)[C@@H]1CCCN1)C(=O)N[C@@H](CC(C)C)C(=O)O [PYIL] (H-PYIL-OH),two orders of magnitude lower activity

# Tested on: not listed separately
# Assay: Stability of peptides in serum (Fetal Bovine Serum), activity remaining
# Assay type: in vitro ADME
# Conditions: octapeptides X-SDKPYIL; fraction of peptide activity left after 10 min of incubation in serum at 37° C.
# Description: All peptides were incubated at 10^−5 M with Fetal Bovine Serum (FBS; final concentration of 66.7%) (Sigma Aldrich, Denmark) at 37° C. for 3 hours. The peptide degradation was terminated using 1 M phosphoric acid (final 0.4 M, pH ˜1.2) and neutralized to pH 7.2-7.4 with NaOH before testing activity in intestinal cells. As for small intestine homogenates, a zero degradation control was included for each peptide.
# DC7-2, NT, DKPYIL and NT-(8-13) (final concentration of 10^−6 M) were incubated either with FBS or with 270× diluted intestinal homogenate at 37° C. for various time points with shaking. Degradation was stopped with 1 M phosphoric acid and the samples were subsequently neutralized and immediately tested with intestinal cells as described above. Control for zero degradation was included for each peptide as above.
# The 20 hexapeptides with systematic N-terminal substitutions (X-KPYIL) (Schafer-N, Denmark) and NT (8-13) was incubated at 10^−6 M in either FBS for 10 minutes or with 270× diluted intestinal homogenate for 30 minutes at 37° C. with shaking. The degradation was stopped with 1 M phosphoric acid. Peptide solutions were neutralized with NaOH (pH 7.2-7.4), diluted and immediately tested for bioactivity using murine intestinal cells. Determination of EC50 for stimulation of cells allowed calculation of recovered peptide. Systematic substitutions of N-terminal amino acids in octapeptide […] and their importance for activity and stability. Sequence, activity and stability of DC7-2 is italicized.
row,Compound,Stability in serum (activity remaining) [fraction]
1,MSDKPYIL [compound 36046],0.0762
2,SSDKPYIL [compound 36051],0.0609
3,GSDKPYIL [compound 36041],0.0912
4,NSDKPYIL [compound 36047],0.0872
5,LSDKPYIL [compound 36045],0.0917
6,ESDKPYIL [compound 36039],0.0964
7,PSDKPYIL [compound 36048],0.0772
8,KSDKPYIL [compound 36044],0.0527
9,VSDKPYIL [compound 36053],0.0488
10,RSDKPYIL [compound 36050],0.0735
11,ISDKPYIL [compound 36043],0.0956
12,CSDKPYIL [compound 36037],0.0963
13,ASDKPYIL [compound 36036],0.0988
14,YSDKPYIL [compound 36055],0.0491
15,DSDKPYIL [compound 36038],0.0947
16,HSDKPYIL [compound 36042],0.0980
17,WSDKPYIL [compound 36054],0.0426
18,TSDKPYIL [compound 36052],0.0535
19,FSDKPYIL [compound 36040],0.0944
20,QSDKPYIL [compound 36049],0.0742

# Tested on: mice
# Assay: not given
# Conditions: mouse, in vivo, ip, 128 mg/kg
# Description: Liraglutide reached its maximum inhibition of gastric emptying at doses higher than 3 mg/kg retaining approximately 30% of the phenol red marker solution in the stomach. […] A combination test was designed in which DC7-2 was given at EC50 (3 mg/kg) together with different doses of liraglutide (same as used in dose-response test) (FIG. 17 B). […] This was further supported by the different maximum values observed for liraglutide and DC7-2 alone, respectively.
row,Compound,inhibition of gastric emptying [%]
1,"ASDKPYIL [Peptide ID 36036, A SDKPYIL]",~50

# Tested on: pepsin
# Assay: Pepsin degradation (proteolytic digest of meat)
# Conditions: present in proteolytic digests
# Description: Minced meat is diluted 1-10 times with distilled water, adjusted to pH 1-3 with hydrochloric acid, and incubated with 0.01-10% pepsin (w/w) at 4-40° C. for ½-12 h with adequate mixing. Insoluble material is removed by centrifugation at 100-1000 xg for 3-30 min, and supernatant is neutralized with NaOH. Using sterile conditions, low molecular weight peptides in supernatant are recovered by tangential ultrafiltration at 4-40° C. for ½-12 h, and excess water is evaporated at 25-50° C. for up to 12 h. The concentrated dialysate is tested for bioactivity with cells and used for further purification by HPLC.
row,Compound,pepsin degradation
1,"ASDKPYIL [Peptide ID 36036, A SDKPYIL]",resistant to pepsin degradation

# Tested on: Swiss-Webster females
# Assay: Chronic feed intake, 3-week daily administration
# Assay type: in vivo
# Conditions: FIG. 18; liraglutide 3 μg/mouse s.c., DC7-2 1 mg/mouse i.p., sitagliptin 0.025 mg/mouse
# Excerpt: FIG. 18. […] Mice had free access to water and feed in this 3-week study (n=14-18 per group). Significance (P<0.05) is shown as * compared to the corresponding vehicle control.
# The effect of DC7-2 alone or in combination with liraglutide on feed intake and body weight was investigated in outbred Swiss-Webster females.
row,Compound,accumulative feed intake after repeated daily administration
1,N[C@@H](CC(=O)N1CCn2c(nnc2C(F)(F)F)C1)Cc1cc(F)c(F)cc1F [sitagliptin],reduces feed intake

# Tested on: human (hIC) intestinal cells
# Assay: Ca2+ flux / calcium response assay in human intestinal cells (hIC)
# Assay type: cell-based
# Conditions: FIG. 2, truncation
# Description: Elevation of intracellular calcium level was measured using the fluorescent calcium chelating dye Fluo-4 AM (ThermoFischer Scientific, Denmark). Briefly, cells were grown as a monolayer in 96-well tissue culture plates (Sarstedt, Germany) to near confluence in appropriate growth medium as described in the cell culture section. Prior to the start of the assay, the cells were incubated with 1.5 μM Fluo-4 AM in complete culture media mixed 1:1 with Hank's balanced salt solution (HBSS, ThermoFischer Scientific, Denmark) containing 25 mM HEPES (pH 7.4), 1% BSA (Sigma-Aldrich, Denmark), 2% ink (Soluro GMBH, Germany), 0.01% Pluronic F-127 (Sigma-Aldrich, Denmark) and 1 mM Probenecide (Sigma-Aldrich) for 60 minutes at 37° C.
# All test compounds were dissolved in water, and then diluted in 1×HBSS containing 25 mM HEPES (pH 7.4), 1% BSA and 2% ink. Without any removal of excess Fluo-4 AM, test compounds were added directly into the wells and fluorescence were measured using instrument settings for excitation at 488 nm and emission at 525 nm in a microtiter plate reader (SpectraMax M5, Molecular Devices, USA).
# Human intestinal cell lines were cultured in McCoy's modified 5A medium supplemented with 10% fetal bovine serum and 1% penicillin/streptomycin/neomycin at 37° C. and 5% CO2 in a humidified incubator.
row,Compound,activity in hIC
1,CC[C@H](C)[C@H](NC(=O)[C@H](Cc1ccc(O)cc1)NC(=O)[C@@H]1CCCN1)C(=O)N[C@@H](CC(C)C)C(=O)O [PYIL] (H-PYIL-OH),no activity

# Tested on: mice
# Assay: not given
# Conditions: 1 week of daily exposure in mice; cited from earlier work
row,Compound,desensitization of glucose homeostasis
1,exendin-4,a tendency but not significant difference
